The supplement of paper PMC13207355

Legend:
Conditions in all cases: exposure time: 72 h
[1] = test system: E31 (patient-derived glioblastoma stem cells of proneural subtype); test: surviving fraction (nuclei count normalised to DMSO); higher = more cells surviving (less toxic)
[2] = test system: E21 (patient-derived glioblastoma stem cells of mesenchymal subtype); test: as above
[3] = test system: E28 (patient-derived glioblastoma stem cells of classical subtype); test: as above
[4] = test system: E34 (patient-derived glioblastoma stem cells of proneural subtype); test: as above
[5] = test system: E57 (patient-derived glioblastoma stem cells of mesenchymal subtype); test: as above
[6] = test system: FT3469 (normal neural stem cell line); test: as above
[7] = test system: E13 (patient-derived glioblastoma stem cells of classical subtype); test: as above
[8] = test system: E31; test: phenotypic distance (Euclidean, principal components) from DMSO controls (arbitrary units); higher = stronger morphological change
[9] = test system: E21; test: as above
[10] = test system: E28; test: as above
[11] = test system: E34; test: as above
[12] = test system: E57; test: as above
[13] = test system: FT3469; test: as above
[14] = test system: E13; test: as above
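For phenotypic distance (Euclidean, principal components) from DMSO controls in this document: cell Painting imaging in 384-well plates, CellProfiler features reduced to at least 20 principal components, Euclidean distance versus same-plate DMSO vehicle wells (0.1% v/v), median over six images per well.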
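For surviving fraction (nuclei count normalised to DMSO) in this document: nuclei counted by high-content imaging of Hoechst-stained cells in laminin-coated 384-well plates, relative to 0.1% DMSO vehicle wells, with staurosporine as cell-death control.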

CC(=O)O[C@H]1C[C@H](O[C@H]2[C@@H](O)C[C@H](O[C@H]3[C@@H](O)C[C@H](O[C@H]4CC[C@@]5(C)[C@H](CC[C@@H]6[C@@H]5C[C@@H](O)[C@]5(C)[C@@H](C7=CC(=O)OC7)CC[C@]65O)C4)O[C@@H]3C)O[C@@H]2C)O[C@H](C)[C@H]1O[C@@H]1O[C@H](CO)[C@@H](O)[C@H](O)[C@H]1O [Lanatoside C]
Conditions	phenotypic distance	surviving fraction
[1], 4.1 nM	–	1.26
[1], 12.3 nM	–	0.646
[1], 37 nM	–	0.564
[1], 111.1 nM	–	0.398
[1], 333.3 nM	–	0.413
[1], 1000 nM	–	0.35
[1], 3000 nM	–	0.326
[2], 4.1 nM	–	0.829
[2], 12.3 nM	–	0.52
[2], 37 nM	–	0.513
[2], 111.1 nM	–	0.347
[2], 333.3 nM	–	0.287
[2], 1000 nM	–	0.214
[2], 3000 nM	–	0.241
[3], 4.1 nM	–	0.864
[3], 12.3 nM	–	0.807
[3], 37 nM	–	0.625
[3], 111.1 nM	–	0.57
[3], 333.3 nM	–	0.505
[3], 1000 nM	–	0.394
[3], 3000 nM	–	0.449
[4], 4.1 nM	–	0.887
[4], 12.3 nM	–	0.769
[4], 37 nM	–	0.597
[4], 111.1 nM	–	0.56
[4], 333.3 nM	–	0.543
[4], 1000 nM	–	0.397
[4], 3000 nM	–	0.276
[5], 4.1 nM	–	1.03
[5], 12.3 nM	–	0.615
[5], 37 nM	–	0.371
[5], 111.1 nM	–	0.238
[5], 333.3 nM	–	0.217
[5], 1000 nM	–	0.177
[5], 3000 nM	–	0.152
[6], 4.1 nM	–	0.642
[6], 12.3 nM	–	0.545
[6], 37 nM	–	0.622
[6], 111.1 nM	–	0.554
[6], 333.3 nM	–	0.66
[6], 1000 nM	–	0.627
[6], 3000 nM	–	0.592
[7], 4.1 nM	–	0.646
[7], 12.3 nM	–	0.373
[7], 37 nM	–	0.344
[7], 111.1 nM	–	0.349
[7], 333.3 nM	–	0.268
[7], 1000 nM	–	0.273
[7], 3000 nM	–	0.245
[8], 4.1 nM	2.01	–
[8], 12.3 nM	3.33	–
[8], 37 nM	4.72	–
[8], 111.1 nM	5.61	–
[8], 333.3 nM	4.79	–
[8], 1000 nM	4.62	–
[8], 3000 nM	5.53	–
[9], 4.1 nM	2.87	–
[9], 12.3 nM	3.93	–
[9], 37 nM	4.41	–
[9], 111.1 nM	6.06	–
[9], 333.3 nM	7.08	–
[9], 1000 nM	6.66	–
[9], 3000 nM	6.83	–
[10], 4.1 nM	1.18	–
[10], 12.3 nM	1.82	–
[10], 37 nM	2.35	–
[10], 111.1 nM	3.35	–
[10], 333.3 nM	3.21	–
[10], 1000 nM	3.17	–
[10], 3000 nM	3.73	–
[11], 4.1 nM	1.29	–
[11], 12.3 nM	2.98	–
[11], 37 nM	3.49	–
[11], 111.1 nM	4.28	–
[11], 333.3 nM	3.87	–
[11], 1000 nM	3.82	–
[11], 3000 nM	5.11	–
[12], 4.1 nM	2.85	–
[12], 12.3 nM	4.99	–
[12], 37 nM	6.18	–
[12], 111.1 nM	7.2	–
[12], 333.3 nM	6.8	–
[12], 1000 nM	6.87	–
[12], 3000 nM	7.11	–
[13], 4.1 nM	3.36	–
[13], 12.3 nM	3.52	–
[13], 37 nM	3.89	–
[13], 111.1 nM	3.72	–
[13], 333.3 nM	3.47	–
[13], 1000 nM	3.7	–
[13], 3000 nM	3.74	–
[14], 4.1 nM	3.23	–
[14], 12.3 nM	4.4	–
[14], 37 nM	4.8	–
[14], 111.1 nM	5.94	–
[14], 333.3 nM	6.29	–
[14], 1000 nM	6.53	–
[14], 3000 nM	6.35	–
